Reference: US20250325468A1, “PEPTIDE INHIBITING FORMATION OF SNARE COMPLEX AND USE THEREOF” (MEDYTOX INC., priority 2020, published 2025)
“And” between values parts separate entries of the source, which are not always exact repeats. Equal values may be shown once. Where no end group is shown, it is not given here.

Assays:
B16-F10 cells = experiment: Raw material toxicity test: MTT analysis; format: cell-based, mice; settings: FIG. 3; 12.5 μM, 25 μM and 50 μM, 48 hours
Procedure: B16-F10 cells purchased from the Korean Cell Line Bank were inoculated into 100 μL of a DMEM medium containing 10% FBS at a concentration of 1×10^4 cells/well in a 96-well plate and cultured for 48 hours. B16-F10 cells are a murine melanoma cell line derived from mice. These cells are adherent and have an epithelial morphology. Thereafter, the C2-P4 peptide was diluted in a DMEM culture medium at concentrations of 12.5 μM, 25 μM, and 50 μM to replace the medium, and the cells were cultured for 48 hours. After centrifuging the plate at 1,000 rpm for 10 minutes, the culture medium solution was removed. Each well was washed twice with PBS, and a 0.5 mg/ml MTT solution diluted in a DMEM medium was added thereto. The cells were cultured in an incubator of 37° C. and 5% CO2 for 2 hours. After centrifuging the plate at 1,000 rpm for 10 minutes, the MTT solution was removed. Each well was washed twice with PBS, and 150 μL of DMSO was added to dissolve the produced formazan. The plate was placed in a spectrometer (Spectra MAX i3), and absorbance of the sample in each well was measured at 590 nm.

[1] = Skin irritation test on artificial skin (MTT); format: cell-based; settings: human, artificial skin (Neoderm-ED, Tegoscience); FIG. 4; 20 μl of 100 μg/ml peptide; 50% or greater = no irritation; read-out: cell viability
Procedure: (§1) 1×PBS and 5% SDS were evenly applied to artificial skin (Neoderm-ED) purchased from Tegoscience (South Korea) to prepare a negative control and a positive control, respectively. An experimental group was evenly coated with 20 μl of 100 μg/ml C2-P4 peptide. After allowing the samples to react at room temperature for 15 minutes, the resultants were each transferred to the wells of a 12-well culture plate and cultured in an incubator of 37° C. and 5% CO2 for 15 minutes. Once the reaction was completed, the artificial skin was washed twice with PBS and transferred to the wells of a new 12-well culture plate and cultured for 42 hours. Once the culture was completed, 2 ml of 0.3 mg/ml MTT solution was added, and the cells were cultured for 3 hours. The sample in each well of the plate was decolorized by adding 0.04 N HCl-isopropanol, and placed in the Spectra MAX i3, and absorbance of the sample in each well was measured at 580 nm.
(§2) FIG. 4 is a graph showing the results of measuring effect of C2-P4 on skin irritation. […] Here, when the cell viability of a sample was 50% or greater, the sample was determined to have no irritation.

[2] = system: artificial skin (Neoderm-ED); experiment: Skin irritation test on artificial skin (MTT); format: cell-based; settings: FIG. 4; 20 μl of 100 μg/ml peptide; 50% or greater viability = no irritation
Procedure: as §1, §2

MITF gene = MITF gene activity by real-time PCR; format: cell-based, mice; settings: Table 2; three replicates; C2-P4 10 μM, α-MSH 50 nM, 48 hours
Procedure: B16-F10 cells purchased from the Korean Cell Line Bank were inoculated into 3 mL of a DMEM medium containing 10% FBS at a concentration of 1×10^5 cells/well in a 6-well plate and cultured in an incubator of 37° C. and 5% CO2 for 24 hours to form a cell monolayer. The medium in a negative control was replaced with a DMEM medium, and the medium in peptide-treated experimental groups and α-MSH experimental groups was replaced with a medium containing 10 μM of each of the peptides and 50 nM of α-MSH, respectively, and then the cells were cultured for 48 hours. Each of the experimental groups was washed twice with PBS, the cells were obtained with trypsin-EDTA and centrifuged at 1500 rpm for 5 minutes to separate the cells. RNA was extracted from the separated cells using Trizol, and each 1,000 ng of cDNA was synthesized using reverse transcriptase. Using 100 ng of each of the synthesized cDNAs, the expression levels of GAPDH and […] were confirmed using real-time PCR. The primers used for the real-time PCR were SEQ ID NOs: 9 and 10. Alternatively, the polynucleotide sets of SEQ ID NOs: 11 and 12 were used.

Substance | cell viability compared to the negative control (scrambled peptide) (B16-F10 cells) | cytotoxicity (MTT assay) (B16-F10 cells) | viability at 0.5 h, 100 µg/mL [1] | skin irritation [2] | MITF (real-time PCR value) (MITF gene)
RRWRRWNRFNRRRCRRRLQQTQAQVDEVVDIM [C2-P4] | similar | no cytotoxicity | ~85% | no irritation | 
α-MSH |  |  |  |  | 30.05 and 29.98 and 30.17
